Results as given in the supplement of paper PMC11061612.

Experiments:
M14 (Melanoma) [1] = assay: Bliss excess, mean over the matrix (fraction); higher = more synergy
Summary of the method: (§1)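 After 24 hours at 37°C and 5% CO2 in 1536-well plates, cells in DMEM/F12 or RPMI plus 10% FBS received two-drug dose matrices for 72 hours. Viability came from CellTiter-Glo 2.0 luminescence and was scaled as inhibition, anchored at 0 by vehicle wells and at 1 by blank wells. Combination Emax is taken as the second-highest inhibition in the matrix, and Bliss excess as the observed combination effect less EA + EB − EA·EB, with EA and EB the single-agent effects.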

[2] = test system: BC-1 (B-Cell Non-Hodgkin's Lymphoma); assay: combination Emax (second highest fraction inhibited in the dose matrix, 72 h); higher = more inhibition; extreme values may be limits of the assay
Summary of the method: as §1

[3] = test system: CAL-85-1 (Breast Carcinoma); assay: as above
Summary of the method: as §1

[4] = test system: COR-L105 (Lung Adenocarcinoma); assay: as above
Summary of the method: as §1

DK-MG (Glioblastoma) = assay: as above
Summary of the method: as §1

[5] = test system: HT-3 (Cervical Carcinoma); assay: as above
Summary of the method: as §1

[6] = test system: KNS-62 (Squamous Cell Lung Carcinoma); assay: as above
Summary of the method: as §1

M14 (Melanoma) [7] = assay: as above
Summary of the method: as §1

[8] = test system: NCI-H1435 (Non-Small Cell Lung Carcinoma); assay: as above
Summary of the method: as §1

[9] = test system: NCI-H1975 (Lung Adenocarcinoma); assay: as above
Summary of the method: as §1

[10] = test system: NCI-H2170 (Squamous Cell Lung Carcinoma); assay: as above
Summary of the method: as §1

[11] = test system: OCI-M1 (Acute Myeloid Leukemia); assay: as above
Summary of the method: as §1

[12] = test system: OVKATE (Ovarian Carcinoma); assay: as above
Summary of the method: as §1

[13] = test system: RPMI-8402 (T-Lymphoblastic Leukemia); assay: as above
Summary of the method: as §1

[14] = test system: SBC-3 (Small Cell Lung Carcinoma); assay: as above
Summary of the method: as §1

[15] = test system: SBC-5 (Small Cell Lung Carcinoma); assay: as above
Summary of the method: as §1

[16] = test system: SCC90 (Head and Neck Carcinoma); assay: as above
Summary of the method: as §1

[17] = test system: SNU-1 (Gastric Carcinoma); assay: as above
Summary of the method: as §1

RVH-421 (Melanoma) [18] = assay: Bliss excess, mean over the matrix (fraction); higher = more synergy
Summary of the method: as §1

RVH-421 (Melanoma) [19] = assay: combination Emax (second highest fraction inhibited in the dose matrix, 72 h); higher = more inhibition; extreme values may be limits of the assay
Summary of the method: as §1
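Throughout, for Bliss excess, mean over the matrix: after 72 h of two-drug dosing.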

| SMILES | Bliss excess (M14 (Melanoma) [1]) | combination Emax [2] | combination Emax [3] | combination Emax [4] | combination Emax (DK-MG (Glioblastoma)) | combination Emax [5] | combination Emax [6] | combination Emax (M14 (Melanoma) [7]) | combination Emax [8] | combination Emax [9] | combination Emax [10] | combination Emax [11] | combination Emax [12] | combination Emax [13] | combination Emax [14] | combination Emax [15] | combination Emax [16] | combination Emax [17] | Bliss excess (RVH-421 (Melanoma) [18]) | combination Emax (RVH-421 (Melanoma) [19]) |
| --- | --- | --- | --- | --- | --- | --- | --- | --- | --- | --- | --- | --- | --- | --- | --- | --- | --- | --- | --- | --- |
| C=CCn1c(=O)c2cnc(Nc3ccc(N4CCN(C)CC4)cc3)nc2n1-c1cccc(C(C)(C)O)n1 [AZD1775] + C1CN(CCC1(C(=O)N[C@@H](CCO)C2=CC=C(C=C2)Cl)N)C3=NC=NC4=C3C=CN4 [Capivasertib] (first compound max 3 µM, partner max 3 µM) | 0.0065 | 0.97 | 0.682 | 0.584 | 0.485 | 0.736 | 0.719 | 0.766 | 0.442 | 0.714 | 0.828 | 0.974 | 0.322 | 1 | 0.881 | 0.87 | 0.668 | 0.727 |  |  |
| Cc1cc2ncnn2cc1Nc1ncc2c(n1)n(C1CCOCC1)c(=O)n2C [AZD7648] + C[C@@H]1COCCN1C2=NC(=NC(=C2)C3(CC3)[S@](=N)(=O)C)C4=C5C=CNC5=NC=C4 [AZD6738] (first compound max 10 µM, 7x7, partner max 10 µM) |  | 0.941 | 0.594 | 0.531 | 0.273 | 0.536 | 0.526 |  | 0.217 | 0.423 | 0.657 | 0.956 | 0.377 | 0.988 | 0.71 | 0.481 | 0.325 | 0.788 | 0.0381 | 0.322 |
| Cc1cc2ncnn2cc1Nc1ncc2c(n1)n(C1CCOCC1)c(=O)n2C [AZD7648] + O=C(c1cc(Cc2n[nH]c(=O)c3ccccc23)ccc1F)N1CCN(C(=O)C2CC2)CC1 [Olaparib] (first compound max 10 µM, 7x7, partner max 10 µM) |  | 0.385 | 0.337 | 0.222 | 0.262 | 0.0499 | 0.149 |  | 0.149 | 0.389 | 0.411 | 0.173 | 0.148 | 0.561 | 0.451 | 0.218 | 0.188 | 0.446 | -0.0684 | 0.0825 |
| COc1cc2c(cc1OCCCCCOc1cc3c(cc1OC)C(=O)N1C=C(C)C[C@H]1C=N3)N=C[C@@H]1CC(C)=CN1C2=O [SG3199] + O=C(c1cc(Cc2n[nH]c(=O)c3ccccc23)ccc1F)N1CCN(C(=O)C2CC2)CC1 [Olaparib] (first compound max 0.001 µM, 7x7, partner max 10 µM) |  | 0.181 | 0.188 | 0.0843 | 0.099 | 0.0808 | 0.0885 |  | 0.107 | 0.172 | 0.228 | 0.249 | 0.0519 | 0.435 | 0.478 | 0.0814 | 0.173 | 0.353 | -0.0773 | 0.0596 |
